According to patent US11319299B2, “Substituted carboxamides as inhibitors of WDR5 protein-protein binding” (PROPELLON THERAPEUTICS INC., priority 2016, dated 2022):

The molecules below were run against WDR5 (Homo sapiens (Human), UniProt P61964) (assay: Surface Plasmon Resonance (SPR) assay, KD and residence time). Details: surface plasmon resonance (SPR) assay; read-out: WDR5 binding affinity (KD).
Assay type: binding
Method: (i) Surface Plasmon Resonance (SPR) Assay
The lifetime of a drug on its target is determined by two rate constants: the association rate constant (kon) and the dissociation rate constant (koff). In principle, the lifetime of the binary drug—target complex is thus extended by a rapid rate of drug binding and/or a slow rate of drug—target complex dissociation. The in vivo lifetime of a drug-target complex is most critically dependent on the value of the koff [Nat. Rev. Drug Discov. […] Drug Discov. […] Drug-target residence time is defined as the reciprocal of koff (τ=1/koff), making the residence time a parameter that is easily measured by routine in vitro assay methods.

Structure (SMILES)	Kd
CC1CN(c2cc(F)c(-c3ccc(N4CCOCC4)cc3)cc2NC(=O)c2nn(C)c3ccccc23)CCN1C (stereo in doubt) [Example 117, N-[4-fluoro-5-(4-morpholin-4-ylphenyl)-2-[(3R)-3,4-dimethylpiperazin-1-yl]phenyl]-1-methylindazole-3-carboxamide]	42.8 nM
CC1CN(c2cc(F)c(-c3cnc(N4CCOCC4)nc3)cc2NC(=O)c2cnn(C)c2)CCN1C (stereo in doubt) [Example 121, N-[4-fluoro-5-(2-morpholin-4-ylpyrimidin-5-yl)-2-[(3R)-3,4-dimethylpiperazin-1-yl]phenyl]-1-methylpyrazole-4-carboxamide]	33.4 nM
CC1CN(c2cc(F)c(-c3ccc(N4CCOCC4)cc3)cc2NC(=O)c2cnn(C)c2)CCN1C (stereo in doubt) [Example 122, N-[4-fluoro-5-(4-morpholin-4-ylphenyl)-2-[(3R)-3,4-dimethylpiperazin-1-yl]phenyl]-1-methylpyrazole-4-carboxamide]	70.2 nM
Cc1csc(C(=O)Nc2cc(-c3cnc(N4CCOCC4)nc3)c(F)cc2N2CCN(C)C(C)C2)n1 (stereo in doubt) [Example 181, N-[4-fluoro-5-(2-morpholin-4-ylpyrimidin-5-yl)-2-[(3R)-3,4-dimethylpiperazin-1-yl]phenyl]-4-methyl-1,3-thiazole-2-carboxamide]	> 200 nM
CC1CN(c2cc(F)c(-c3cnc(N4CCOCC4)nc3)cc2NC(=O)c2csc(CN(C)C)n2)CCN1C (stereo in doubt) [Example 182, 2-[(dimethylamino)methyl]-N-[4-fluoro-5-(2-morpholin-4-ylpyrimidin-5-yl)-2-[(3R)-3,4-dimethylpiperazin-1-yl]phenyl]-1,3-thiazole-4-carboxamide]	> 200 nM
CC1CN(c2cc(F)c(-c3cnc(N4CCOCC4)nc3)cc2NC(=O)c2n[nH]cc2Cl)CCN1C (stereo in doubt) [Example 183, 4-chloro-N-[4-fluoro-5-(2-morpholin-4-ylpyrimidin-5-yl)-2-[(3R)-3,4-dimethylpiperazin-1-yl]phenyl]-1H-pyrazole-3-carboxamide]	113 nM
CC1CN(c2cc(F)c(-c3cnc(N4CCOCC4)nc3)cc2NC(=O)c2ccn(C)n2)CCN1C (stereo in doubt) [Example 192, N-[4-fluoro-5-(2-morpholin-4-ylpyrimidin-5-yl)-2-[(3R)-3,4-dimethylpiperazin-1-yl]phenyl]-1-methylpyrazole-3-carboxamide]	1260 nM
CC1CN(c2cc(F)c(-c3cnc(N4CCOCC4)nc3)cc2NC(=O)c2cc[nH]n2)CCN1C (stereo in doubt) [Example 193, N-[4-fluoro-5-(2-morpholin-4-ylpyrimidin-5-yl)-2-[(3R)-3,4-dimethylpiperazin-1-yl]phenyl]-1H-pyrazole-3-carboxamide]	592 nM
Cc1nc(C(=O)Nc2cc(-c3cnc(N4CCOCC4)nc3)c(F)cc2N2CCN(C)C(C)C2)cs1 (stereo in doubt) [Example 194, N-[4-fluoro-5-(2-morpholin-4-ylpyrimidin-5-yl)-2-[(3R)-3,4-dimethylpiperazin-1-yl]phenyl]-2-methyl-1,3-thiazole-4-carboxamide]	113 nM
Cc1ncc(C(=O)Nc2cc(-c3cnc(N4CCOCC4)nc3)c(F)cc2N2CCN(C)C(C)C2)s1 (stereo in doubt) [Example 195, N-[4-fluoro-5-(2-morpholin-4-ylpyrimidin-5-yl)-2-[(3R)-3,4-dimethylpiperazin-1-yl]phenyl]-2-methyl-1,3-thiazole-5-carboxamide]	106 nM
CC(=O)Nc1ccc(-c2cc(NC(=O)c3c[nH]c(=O)cc3C(F)(F)F)c(N3CCN(C)C(C)C3)cc2F)cn1 (stereo in doubt) [Example 196, N-[5-(6-acetamidopyridin-3-yl)-4-fluoro-2-[(3R)-3,4-dimethylpiperazin-1-yl]phenyl]-6-oxo-4-(trifluoromethyl)-1H-pyridine-3-carboxamide]	0.24 nM
CC1CN(c2cc(F)c(-c3ccc(OCC4CC4)nc3)cc2NC(=O)c2c[nH]c(=O)cc2C(F)(F)F)CCN1C (stereo in doubt) [Example 198, N-[5-[6-(cyclopropylmethoxy)pyridin-3-yl]-4-fluoro-2-[(3R)-3,4-dimethylpiperazin-1-yl]phenyl]-6-oxo-4-(trifluoromethyl)-1H-pyridine-3-carboxamide]	0.666 nM
Cc1nc(C(F)(F)F)c(C(=O)Nc2cc(-c3cnc(N4CCOCC4)nc3)c(F)cc2N2CCN(C)C(C)C2)s1 (stereo in doubt) [Example 199, N-[4-fluoro-5-(2-morpholin-4-ylpyrimidin-5-yl)-2-[(3R)-3,4-dimethylpiperazin-1-yl]phenyl]-2-methyl-4-(trifluoromethyl)-1,3-thiazole-5-carboxamide]	23.4 nM
CC1CN(c2cc(F)c(-c3cnc(N4CCOCC4)nc3)cc2NC(=O)c2cc(Cl)cc(Cl)c2)CCN1C (stereo in doubt) [Example 200, 3,5-dichloro-N-[4-fluoro-5-(2-morpholin-4-ylpyrimidin-5-yl)-2-[(3R)-3,4-dimethylpiperazin-1-yl]phenyl]benzamide]	9.7 nM
CC1CN(c2cc(F)c(-c3cccc(CN(C)C4COC4)c3)cc2NC(=O)c2c[nH]c(=O)cc2C(F)(F)F)CCN1C (stereo in doubt) [Example 214, N-[4-fluoro-5-[3-[[methyl(oxetan-3-yl)amino]methyl]phenyl]-2-[(3R)-3,4-dimethylpiperazin-1-yl]phenyl]-6-oxo-4-(trifluoromethyl)-1H-pyridine-3-carboxamide]	2.15 nM
CC(=O)Nc1ccc(-c2cc(NC(=O)c3cn(C)c(=O)cc3C(F)F)c(N3CCN(C)C(C)C3)cc2F)cn1 (stereo in doubt) [Example 217, N-[5-(6-acetamidopyridin-3-yl)-4-fluoro-2-[(3R)-3,4-dimethylpiperazin-1-yl]phenyl]-4-(difluoromethyl)-1-methyl-6-oxopyridine-3-carboxamide]	4.32 nM
CC1CN(c2cc(F)c(-c3cnc(C#N)nc3)cc2NC(=O)c2cn(C)c(=O)cc2C(F)F)CCN1C (stereo in doubt) [Example 218, N-[5-(2-cyanopyrimidin-5-yl)-4-fluoro-2-[(3R)-3,4-dimethylpiperazin-1-yl]phenyl]-4-(difluoromethyl)-1-methyl-6-oxopyridine-3-carboxamide]	3.18 nM
CC1CN(c2cc(F)c(-c3ccc(N(C)C)nc3)cc2NC(=O)c2c[nH]c(=O)cc2C(F)(F)F)CCN1C (stereo in doubt) [Example 219, N-[5-[6-(dimethylamino)pyridin-3-yl]-4-fluoro-2-[(3R)-3,4-dimethylpiperazin-1-yl]phenyl]-6-oxo-4-(trifluoromethyl)-1H-pyridine-3-carboxamide]	1.4 nM
CC1CN(c2cc(F)c(-c3cnc(N4CCOCC4)nc3)cc2NC(=O)c2ccc(F)cc2Cl)CCN1C (stereo in doubt) [Example 230, 2-chloro-4-fluoro-N-[4-fluoro-5-(2-morpholin-4-ylpyrimidin-5-yl)-2-[(3R)-3,4-dimethylpiperazin-1-yl]phenyl]benzamide]	8.95 nM
CC1CN(c2cc(F)c(-c3ccc(N4CCOCC4)nc3)cc2NC(=O)c2c[nH]c(=O)cc2C(F)(F)F)CCN1C (stereo in doubt) [Example 239, N-[4-fluoro-5-(6-morpholin-4-ylpyridin-3-yl)-2-[(3R)-3,4-dimethylpiperazin-1-yl]phenyl]-6-oxo-4-(trifluoromethyl)-1H-pyridine-3-carboxamide]	1.07 nM
CC(C)Oc1ncc(-c2cc(NC(=O)c3c[nH]c(=O)cc3C(F)(F)F)c(N3CCN(C)C(C)C3)cc2F)cn1 (stereo in doubt) [Example 240, N-[4-fluoro-5-(2-propan-2-yloxypyrimidin-5-yl)-2-[(3R)-3,4-dimethylpiperazin-1-yl]phenyl]-6-oxo-4-(trifluoromethyl)-1H-pyridine-3-carboxamide]	2.23 nM
CC1CN(c2cc(F)c(-c3cnc4c(c3)OCCO4)cc2NC(=O)c2c[nH]c(=O)cc2C(F)(F)F)CCN1C (stereo in doubt) [Example 241, N-[5-(2,3-dihydro-[1,4]dioxino[2,3-b]pyridin-7-yl)-4-fluoro-2-[(3R)-3,4-dimethylpiperazin-1-yl]phenyl]-6-oxo-4-(trifluoromethyl)-1H-pyridine-3-carboxamide]	2.82 nM
CC1CN(c2cc(F)c(-c3cnc(N4CCOCC4)nc3)cc2NC(=O)c2cn(C)nc2C(F)(F)F)CCN1C (stereo in doubt) [Example 284, N-[4-fluoro-5-(2-morpholin-4-ylpyrimidin-5-yl)-2-[(3R)-3,4-dimethylpiperazin-1-yl]phenyl]-1-methyl-3-(trifluoromethyl)pyrazole-4-carboxamide]	8.13 nM
CC1CN(c2cc(F)c(-c3cnc(N4CCOCC4)nc3)cc2NC(=O)c2ccc(F)cc2C(F)(F)F)CCN1C (stereo in doubt) [Example 298, 4-fluoro-N-[4-fluoro-5-(2-morpholin-4-ylpyrimidin-5-yl)-2-[(3R)-3,4-dimethylpiperazin-1-yl]phenyl]-2-(trifluoromethyl)benzamide]	4.22 nM
CC1CN(c2cc(F)c(-c3cnc(N4CCOCC4)nc3)cc2NC(=O)c2ccc(F)cc2C(F)(F)F)CCN1C (stereo in doubt) [Example 299, 4-fluoro-N-[4-fluoro-5-(2-morpholin-4-ylpyrimidin-5-yl)-2-[(3R)-3,4-dimethylpiperazin-1-yl]phenyl]-2-(trifluoromethyl)benzamide]	0.569 nM
CC1CN(c2cc(F)c(-c3ccc(N4CCN(C)CC4)nc3)cc2NC(=O)c2cn(C)c(=O)cc2C(F)(F)F)CCN1C (stereo in doubt) [Example 301, N-[4-fluoro-5-[6-(4-methylpiperazin-1-yl)pyridin-3-yl]-2-[(3R)-3,4-dimethylpiperazin-1-yl]phenyl]-1-methyl-6-oxo-4-(trifluoromethyl)pyridine-3-carboxamide]	5.26 nM
